# Results reported in patent US8741836B2, “Polypeptides” (Novo Nordisk A/S, priority 2011, dated 2014).
# Starred links: 1 amine or outer side, 2 acyl side, 3 side chain; linkers in the order of their positions; H or OH if unused. Positions of bridges follow the written chain, without caps; N, C: chain ends. Residues, ends and D or L forms follow the SMILES beside them. *: point of attachment. C20 diacid = O=C(O)CCCCCCCCCCCCCCCCCCC(=O)*; γGlu = O=C(O)[C@H](CCC(=O)[*:2])N[*:1]
# Test: Assay (III) ThT fibrillation assay for physical stability
# Type: physicochemical
# Conditions: for ThT pH 4.0 lag time: pH 4.0, ThT fibrillation assay
# Outline: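 Freshly prepared, pH-adjusted formulations with 1 μM ThT incubated at 37 °C under 960 rpm orbital shaking (1 mm), fluorescence (ex 444, em 485 nm) read every 20 min. […] Peptide content before and after measured by reverse-phase HPLC against pramlintide standard.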
ThT pH 4.0 lag time (physical stability in fibrillogenesis assay) [h],ThT pH 4.0 lag time [h],Compound
>45,>45,"CC[C@H](C)[C@H](NC(=O)[C@@H]1CCCN1C(=O)CNC(=O)[C@H](Cc1ccccc1)NC(=O)[C@H](CC(N)=O)NC(=O)[C@H](CC(N)=O)NC(=O)[C@H](CO)NC(=O)[C@H](CO)NC(=O)[C@H](Cc1c[nH]cn1)NC(=O)[C@H](CCCNC(=N)N)NC(=O)[C@H](CC(C)C)NC(=O)[C@H](Cc1ccccc1)NC(=O)[C@H](CCC(=O)O)NC(=O)[C@H](C)NC(=O)[C@H](CC(C)C)NC(=O)[C@H](CCCNC(=N)N)NC(=O)[C@H](CCC(N)=O)NC(=O)[C@@H](NC(=O)[C@H](C)NC(=O)[C@@H]1CSSC[C@H](NC(=O)CNC(=O)CC[C@H](NC(=O)CCCCCCCCCCCCCCCCCCC(=O)O)C(=O)O)C(=O)N[C@@H](CC(N)=O)C(=O)N[C@@H]([C@@H](C)O)C(=O)N[C@@H](C)C(=O)N[C@@H]([C@@H](C)O)C(=O)N1)[C@@H](C)O)C(=O)N[C@@H](CC(C)C)C(=O)N1CCC[C@H]1C(=O)N1CCC[C@H]1C(=O)N[C@H](C(=O)N[C@@H](CC(N)=O)C(=O)N[C@H](C(=O)NCC(=O)N[C@@H](CO)C(=O)N[C@@H](CC(N)=O)C(=O)N[C@H](C(=O)N1CCC[C@H]1C(N)=O)[C@@H](C)O)C(C)C)[C@@H](C)O [Example 88, N-alpha-[(S)-4-Carboxy-4-(19-carboxynonadecanoylamino)butyryl]-[Gly1,Glu14,Arg17,Pro37]-pramlintide] ({C20 diacid-γGlu}-GCNTATCATQRLAEFLRHSSNNFGPILPPTNVGSNTP-NH2; disulfide 2-7)"
>45,>45,"CC[C@H](C)[C@H](NC(=O)[C@@H]1CCCN1C(=O)CNC(=O)[C@H](Cc1ccccc1)NC(=O)[C@H](CCC(N)=O)NC(=O)[C@H](CCC(N)=O)NC(=O)[C@H](CO)NC(=O)[C@H](CO)NC(=O)[C@H](Cc1c[nH]cn1)NC(=O)[C@H](CCCNC(=N)N)NC(=O)[C@H](CC(C)C)NC(=O)[C@H](Cc1ccccc1)NC(=O)[C@H](CCC(=O)O)NC(=O)[C@H](C)NC(=O)[C@H](CC(C)C)NC(=O)[C@H](CCCNC(=N)N)NC(=O)[C@H](CCC(N)=O)NC(=O)[C@@H](NC(=O)[C@H](C)NC(=O)[C@@H]1CSSC[C@H](NC(=O)[C@H](CCC(=O)O)NC(=O)[C@H](CCCNC(=N)N)NC(=O)[C@H](CCC(=O)O)NC(=O)CC[C@H](NC(=O)CCCCCCCCCCCCCCCCCCC(=O)O)C(=O)O)C(=O)N[C@@H](CC(N)=O)C(=O)N[C@@H]([C@@H](C)O)C(=O)N[C@@H](C)C(=O)N[C@@H]([C@@H](C)O)C(=O)N1)[C@@H](C)O)C(=O)N[C@@H](CC(C)C)C(=O)N1CCC[C@H]1C(=O)N1CCC[C@H]1C(=O)N[C@H](C(=O)N[C@@H](CCC(N)=O)C(=O)N[C@H](C(=O)NCC(=O)N[C@@H](CO)C(=O)N[C@@H](CCC(N)=O)C(=O)N[C@H](C(=O)N1CCC[C@H]1C(N)=O)[C@@H](C)O)C(C)C)[C@@H](C)O [Example 164, N-alpha-[(S)-4-Carboxy-4-(19-carboxynonadecanoylamino)butyryl]-Glu-Arg-[Glu1,Glu14,Arg17,Gln21,Gln22,Gln31,Gln35,Pro37]-pramlintide] ({C20 diacid-γGlu}-ERECNTATCATQRLAEFLRHSSQQFGPILPPTQVGSQTP-NH2; disulfide 4-9 (inferred))"
